According to PubChem BioAssay (NCI):
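Compound exposure: 48 hours, 5 concentrations, 96-well plates. At the GI50, growth is halved. TGI: concentration producing complete growth inhibition.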

Columns and labels:
Experiment in all cases: inhibition of tumour cell growth, NCI panel, 48 h
[1] = test system: KM12 colon
[2] = test system: NCI-H23 lung
[3] = test system: NCI-H460 lung
[4] = test system: NCI-H522 lung
[5] = test system: SF-268 CNS
[6] = test system: SN12C renal
[7] = test system: TK-10 renal
[8] = test system: U251 CNS
[9] = test system: HCC-2998 colon
[10] = test system: HS 578T breast

SMILES	TGI [1] [µM]	TGI [2] [µM]	TGI [3] [µM]	TGI [4] [µM]	TGI [5] [µM]	TGI [6] [µM]	TGI [7] [µM]	TGI [8] [µM]	TGI [9] [µM]	GI50 [9] [nM]	GI50 [1] [nM]	GI50 [2] [nM]	GI50 [3] [nM]	GI50 [4] [nM]	GI50 [6] [nM]	GI50 [7] [nM]	GI50 [8] [nM]	TGI [10] [µM]	GI50 [5] [µM]
O=C(c1ccc(Cl)cc1)N(C(=S)N1CCN(c2ccccn2)CC1)C1CCCCC1	> 100	> 100	> 100	> 100	> 100	> 100	> 100	> 100	–	–	–	–	–	–	–	–	–	–	–
O=C(c1ccccc1)C1S(=O)(=O)OCCOS1(=O)=O	> 100	> 100	–	> 100	> 100	> 100	> 100	–	> 100	–	–	–	–	–	–	–	–	–	–
S=c1[nH]n2c(CCCCCCCCc3nnc4sc(=S)[nH]n34)nnc2s1	> 100	> 100	> 100	> 100	> 100	> 100	–	> 100	> 100	–	–	–	–	–	–	–	–	–	–
O=C1CC[C@@]2(O)[C@H]3Cc4ccc(-c5ccccc5)c5c4[C@@]2(CCN3CC2CC2)[C@H]1O5	36.6	78.9	35.5	30.1	29.7	72.4	36.4	32.1	33.8	–	–	–	–	–	–	–	–	–	–
CCOC(=O)/C(=C/c1ccc(C(=O)OC)cc1)N(CC)CC	> 100	> 100	–	> 100	> 100	> 100	> 100	> 100	> 100	–	–	–	–	–	–	–	–	–	–
CCN(CC)CCN1C(=O)c2c(c3c4ccccc4[nH]c3c3ccc4ccccc4c23)C1=O	3.22	3.52	2.44	3.54	–	3.22	3.34	3.06	3.08	1530	1740	1690	1080	1460	1710	1770	1530	–	–
COc1cc(OC)c2c3c(OC)cc(OC)c4c(=O)c(O)c(C[C@@H](C)O)c(c5c(C[C@@H](C)O)c(O)c(=O)c1c25)c43	83.2	40	> 100	–	70.4	68.6	> 100	67.9	32	–	–	–	–	–	–	–	–	–	–
CC1CC/C(=C\c2ccc(F)cc2)C(=O)/C1=C/c1ccc(F)cc1 (stereo not given)	14.5	25.5	–	–	14.6	9.9	8.64	22.7	–	–	–	–	–	–	–	–	–	31.4	–
C=C(NC(=O)C(=C)NC(=O)c1csc(C2=NC3c4csc(n4)C4NC(=O)c5csc(n5)C(C(C)(O)C(C)O)NC(=O)C5CSC(=N5)/C(=C/C)NC(=O)C(C(C)O)NC(=O)c5csc(n5)C3(CC2)NC(=O)C(C)NC(=O)C(=C)NC(=O)C(C)NC(=O)C(C(C)CC)NC2C=Cc3c(C(C)O)cc(nc3C2O)C(=O)OC4C)n1)C(N)=O (stereo not given)	–	13.7	4.39	1.15	> 100	3.93	31.3	3.04	> 39.9	–	–	–	–	–	–	–	–	–	4.74
O=C(O)c1ccc(C2=Cc3cc(Cl)ccc3OC2)cc1	> 100	> 100	> 100	> 100	> 100	> 100	> 100	> 100	> 100	–	–	–	–	–	–	–	–	–	–
C=C1C(=O)O[C@@H]2[C@H](O)[C@@H](C)[C@@H]3C=CC(=O)[C@@]3(C)[C@@H](OC(=O)/C(C)=C/C)[C@H]12	7.21	2.57	1.93	0.258	3.84	2.52	–	5.26	4.19	–	–	–	–	–	–	–	–	–	–
CCOC(=O)C(Cc1c[nH]c2cc([N+](=O)[O-])ccc12)NS(=O)(=O)c1ccc2ccccc2c1 (stereo not given)	30.8	48.4	35.5	30.4	43.5	34.4	74.3	32.9	49.4	–	–	–	–	–	–	–	–	–	–
O=C1CC(c2ccccc2)=Nc2ccccc2N1	> 100	> 100	> 100	> 100	> 100	> 100	> 100	> 100	> 100	–	–	–	–	–	–	–	–	–	–
O=C(CSc1nc(-c2ccccc2)c(-c2ccccc2)[nH]1)N/N=C/c1ccc(O)cc1	55.4	84.3	44.8	48.6	88.5	66.7	72.3	49	61.1	–	–	–	–	–	–	–	–	–	–
NC1=NS(=O)(=O)Nc2nc(-c3ccccc3)[nH]c21	> 100	> 100	> 100	> 100	> 100	> 100	> 100	> 100	> 100	–	–	–	–	–	–	–	–	–	–
Cc1ccc(C2=C(C#N)C(N)OC3=C2COc2ccccc23)cc1 (stereo not given)	> 100	> 100	> 100	–	85.9	74.4	44.4	51	> 100	–	–	–	–	–	–	–	–	–	–
O=[N+]([O-])C(/C=N/Nc1ccccc1)/C=N/Nc1ccccc1	> 100	> 100	> 100	> 100	> 100	> 100	> 100	> 100	> 100	–	–	–	–	–	–	–	–	–	–
